Legend:
[1] = target: T1, hPRB (Homo sapiens, UniProt P06401); assay: PR transactivation assay (GRE2-Luc) in HEK293T cells transiently expressing hPRB; format: cell-based; set-up: expressed in transfected cells; host or cells: HEK 293T
T1 sequence (P06401 1-933): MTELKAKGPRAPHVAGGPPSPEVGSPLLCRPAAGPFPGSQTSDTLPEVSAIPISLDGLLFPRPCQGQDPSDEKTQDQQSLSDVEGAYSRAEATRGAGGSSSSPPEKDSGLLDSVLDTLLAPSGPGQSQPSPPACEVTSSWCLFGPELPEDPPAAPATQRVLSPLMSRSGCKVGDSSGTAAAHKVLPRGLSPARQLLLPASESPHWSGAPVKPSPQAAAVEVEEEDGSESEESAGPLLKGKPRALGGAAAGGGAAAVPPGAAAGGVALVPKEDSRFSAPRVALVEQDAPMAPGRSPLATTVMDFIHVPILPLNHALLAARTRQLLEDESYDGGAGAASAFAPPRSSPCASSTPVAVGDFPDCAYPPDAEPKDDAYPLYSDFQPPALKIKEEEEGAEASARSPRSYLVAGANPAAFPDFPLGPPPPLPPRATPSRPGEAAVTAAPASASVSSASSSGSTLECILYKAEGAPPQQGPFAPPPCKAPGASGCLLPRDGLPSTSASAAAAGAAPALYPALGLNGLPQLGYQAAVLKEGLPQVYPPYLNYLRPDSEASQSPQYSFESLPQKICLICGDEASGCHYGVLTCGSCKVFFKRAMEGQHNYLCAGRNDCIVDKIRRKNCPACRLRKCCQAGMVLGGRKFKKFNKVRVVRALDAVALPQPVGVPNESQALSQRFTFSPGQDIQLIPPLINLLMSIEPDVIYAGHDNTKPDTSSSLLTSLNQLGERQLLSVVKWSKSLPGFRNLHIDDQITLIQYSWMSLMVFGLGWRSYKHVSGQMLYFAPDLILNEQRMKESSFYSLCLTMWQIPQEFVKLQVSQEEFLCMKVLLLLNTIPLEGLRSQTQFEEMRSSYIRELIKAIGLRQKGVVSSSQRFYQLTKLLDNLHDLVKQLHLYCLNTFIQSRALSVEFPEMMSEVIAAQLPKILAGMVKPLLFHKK
Protocol: PR Transactivation Assays in HEK 293T.
HEK 293T cells were routinely cultured in a high-glucose DMEM medium (Invitrogene, Cergy Pontoise, France), 20 mM HEPES, 2 mM glutamine, 1× non essential amino acids, 100 U/mL penicillin and 100 μg/mL streptomycin supplemented with 10% foetal calf serum (FCS) in a humidified atmosphere at 37° C. and with 5% CO2. One day before transfection, the cells were seeded at 3×10^6 cells/[…] diameter culture Petri dish and cultured overnight in the same medium. Six hours before transfection, the FCS supplemented medium was replaced by the same medium supplemented with 10% dextran-charcoal treated FCS. Transfections were carried out using the calcium phosphate precipitation method. The calcium phosphate precipitate was prepared with 0.5 μg pchPRB (Petit-Topin, et al Mol Pharmacol, 2009, 75, 1317), 7 μg reporter vector (GRE2-Luc from A. Biola-Vidamment and M. Pallardy) and 1 μg of pcβgal for an internal transfection control, in 1 mL 140 mM NaCl, 0.75 mM Na2HPO4, 25 mM HEPES, 125 mM CaCl2 pH 7.05 and added to the cells 30 minutes later. After 16 h incubation, the transfected cells were washed with PBS containing 2.5 mM EDTA, trypsinized and pooled. The transfected cells were replated in 24-well plates (100.000 transfected cells/well). […] Cells were lysed in 300 μl PBS 1×, 25 mM glycylglycine, 4 mM EDTA, 15% glycerol, 1% triton X-100, 15 mM MgSO4, pH 7.8 supplemented with 2 mM β-mercaptoethanol. The luciferase activities were quantified by using a Mithras LB940 reader microplates (Berthold).
The APRn “agonist efficacy” was determined from the following formula:
Agonist efficacy=[luciferase activity]1/[luciferase activity]2×100
The APRn “antagonist efficacy” was calculated from the following formula:
Antagonist efficacy=100−[luciferase activity]1/[luciferase activity]2×100
The results are the mean±SEM of three to five independent experiments.
All the synthesized APRn were classified in 4 series depending on the nature of their C3 substituent (R1/R′1 groups). The first one (series 1) includes APRn with no C3 substituent (R1═R′1═H) whereas series 2, 3 and 4 are related to APRn bearing a methoxyl (R1═OMe), a hydroxyl (R1═OH) and a fluorine atom (R1═F), respectively. The agonist/antagonist activities of APRn were determined either in human HEK293T cells transiently expressing hPRB or in human MDA-MB-231 iPRAB cells conditionally expressing hPRB, by using a luciferase reporter gene placed under the control of a glucocorticoid response element (GRE2-Luc). The APRn “agonist efficacy” was determined from the luciferase activity measured in the presence of APRn (1 μM). […] The “agonist efficacy” and “antagonist efficacy” are expressed as defined in the biological protocols section.

[2] = series 2-4, stated for both HEK293T and MDA-MB-231 iPRAB cells, APRn 1 μM, FIGS. 3-8
[3] = series 1 (no C3 substituent), HEK293T, APRn 1 μM, FIG. 1

## C#CC(C)(O)[C@H]1CC[C@H]2[C@@H]3CC=C4C[C@@H](F)CC[C@]4(C)[C@H]3CC[C@]12C (stereo partly drawn) [APR-21, 20-Ethynyl-3β-fluoropregn-5-en-20-ol]
other
  melting point: 213 to 214 °C

## CC(=O)O[C@H]1CCC2C3CC=C4C[C@@H](F)CC[C@@H]4C3CC[C@@]21C (stereo partly drawn) [APR-45, 17β-Acetoxy-3β-fluoro-19-nor-androst-5-ene]
other
  melting point: 104 to 105 °C
[1]; [2]
  hPRB agonist/antagonist character (in words): efficient hPRB antagonists

## CC(=O)[C@H]1CC[C@H]2[C@@H]3CC=C4C=CCC[C@]4(C)[C@H]3CC[C@]12C [APR-12, Pregn-3,5-dien-20-one]
other
  melting point: 135 to 136 °C
[1]; [3]
  hPRB agonist/antagonist character (in words): partial antagonist

## C[C@H](O)[C@H]1CCC2C3CCC4CCCC[C@]4(C)C3CC[C@@]21C (some centres unmarked) [APR-10, 20-Hydroxypregnane]
[1]; [3]
  hPRB agonist/antagonist character (in words): full antagonists

## C#C[C@]1(O)CCC2C3CC[C@H]4CCCC[C@@H]4C3CC[C@@]21C (stereo partly drawn) [APR-56, 17α-Ethynyl-19-nor-5-androstan-17β-ol]
[1]; [3]
  hPRB agonist/antagonist character (in words): full antagonists

## C#CC(C)(O)[C@H]1CC[C@H]2[C@@H]3CC=C4C[C@@H](OC)CC[C@]4(C)[C@H]3CC[C@]12C (stereo partly drawn) [APR-31, 20-Ethynyl-3β-methoxypregn-5-en-20-ol]
other
  melting point: 175 to 176 °C
[1]; [2]
  hPRB agonist/antagonist character (in words): antagonist character without any agonist activity

## CC1CCC2C3CCC4=CC(=O)CC[C@]4(C)C3CC[C@]2(C)[C@H]1F (some centres unmarked)
other
  melting point: 170 to 171 °C

## C[C@H](O)[C@H]1CCC2C3CC=C4C=CCC[C@]4(C)C3CC[C@@]21C (some centres unmarked) [APR-11, pregn-3,5-dien-20-ol]
other
  melting point: 103 to 104 °C
[1]; [3]
  hPRB agonist/antagonist character (in words): full antagonists

## C[C@]12CC[C@H]3[C@@H](CC=C4C[C@@H](F)CC[C@@]43C)[C@@H]1CC[C@@H]2O [APR-41, 3β-Fluoro-androst-5-en-17β-ol]
other
  melting point: 165 to 166 °C

## C[C@]12CCC3C(CC=C4C[C@@H](F)CC[C@@H]43)C1CC[C@@H]2O (stereo partly drawn) [APR-46, 31-Fluoro-19-nor-androst-5-en-17β-ol]
other
  melting point: 121 to 122 °C
[1]; [2]
  hPRB agonist/antagonist character (in words): efficient hPRB antagonists

## C#C[C@]1(O)CCC2C3CC[C@H]4C[C@@H](F)CC[C@]4(C)C3CC[C@@]21C (stereo partly drawn) [APR-36, 17α-Ethynyl-3β-fluoro-5α-androstan-17β-ol]
other
  melting point: 225 to 226 °C
[1]; [2]
  hPRB agonist/antagonist character (in words): efficient hPRB antagonists

## CC1CCC2C3CC=C4CC5(CC[C@]4(C)C3CC[C@]2(C)[C@H]1F)OCCO5 (stereo partly drawn) [APR-05, 17aβ-Fluoro-17α-methyl-D-homo-3-ethylenedioxo-5-androstene]
other
  melting point: 146 to 147 °C

## C[C@]12CCCC[C@@H]1CC[C@@H]1[C@@H]2CC[C@]2(C)[C@@H](O)CC[C@@H]12 [APR-14, 5α-Androstan-17β-ol]
[1]; [3]
  hPRB agonist/antagonist character (in words): full antagonists

## C#CC(C)(O)[C@H]1CC[C@H]2[C@@H]3CC[C@H]4C[C@@H](OC)CC[C@]4(C)[C@H]3CC[C@]12C (stereo partly drawn) [APR-30, 20-Ethynyl-3β-methoxy-5α-pregnan-20-ol]
other
  melting point: 168 to 169 °C

## CC(=O)[C@H]1CC[C@H]2[C@@H]3CC[C@H]4C[C@@H](O)CC[C@]4(C)[C@H]3CC[C@]12C [APR-20, 3β-Hydroxy-5α-pregnan-20-one]
[1]; [2]
  hPRB agonist/antagonist character (in words): able to activate hPRB, but their agonist efficacies are low

## C[C@]12CCC3C(CC=C4C[C@@H](O)CC[C@@H]43)C1CC[C@@H]2O (stereo partly drawn) [APR-48, 19-nor-Androst-5-en-3β,17β-diol]
[1]; [2]
  hPRB agonist/antagonist character (in words): Except for APR48, the molecules of this series behave as antagonists

## C[C@H](O)[C@H]1CC[C@H]2[C@@H]3CC=C4C[C@@H](F)CC[C@]4(C)[C@H]3CC[C@]12C [APR-24, 3β-Fluoropregn-5-en-20-ol]
[1]; [2]
  hPRB agonist/antagonist character (in words): efficient hPRB antagonists

## CO[C@H]1CC[C@@]2(C)[C@@H](CC[C@@H]3[C@@H]2CC[C@]2(C)[C@@H](C(C)O)CC[C@@H]32)C1 (mixture of isomers) [APR-28, 3β-Methoxy-5α-pregnan-20-ol]
[1]; [2]
  hPRB agonist/antagonist character (in words): antagonist character without any agonist activity

## C#C[C@]1(O)CCC2C3CC[C@H]4CCCC[C@]4(C)C3CC[C@@]21C (stereo partly drawn) [APR-32, 17α-Ethynyl-5α-androstan-17β-ol]
other
  melting point: 152 to 153 °C
[1]; [3]
  hPRB agonist/antagonist character (in words): full antagonists

## CO[C@H]1CC[C@@]2(C)C(=CC[C@H]3[C@@H]4CC[C@H](C(C)=O)[C@@]4(C)CC[C@@H]32)C1 [APR-02, 3β-Methoxypregn-5-en-20-one]
[1]; [2]
  hPRB agonist/antagonist character (in words): most potent molecules
[1]; series 2-4, stated for both HEK293T and MDA-MB-231 iPRAB cells, APRn 1 μM, FIGS. 3-8, listed as APR2
  hPRB agonist/antagonist character (in words): antagonist character without any agonist activity

## C#CC(C)(O)[C@H]1CC[C@H]2[C@@H]3CC[C@H]4C[C@@H](F)CC[C@]4(C)[C@H]3CC[C@]12C (stereo partly drawn) [APR-26, 20-Ethynyl-3β-fluoro-5α-pregnan-20-ol]
other
  melting point: 230 to 231 °C

## CC(=O)[C@H]1CC[C@H]2[C@@H]3CC=C4C[C@@H](O)CC[C@]4(C)[C@H]3CC[C@]12C [APR-15, 3β-Hydroxypregn-5-en-20-one]
[1]; [2]
  hPRB agonist/antagonist character (in words): able to activate hPRB, but their agonist efficacies are low

## CC(=O)O[C@@H](C)[C@H]1CC[C@H]2[C@@H]3CC[C@H]4CCCC[C@]4(C)[C@H]3CC[C@]12C [APR-13, 20-Acetoxy-5α-pregnane]
[1]; [3]
  hPRB agonist/antagonist character (in words): full antagonists

## C[C@]12CCC3C(CC[C@H]4CCCC[C@H]34)C1CC[C@@H]2O (stereo partly drawn) [APR-52, 19-nor-5-Androstan-17β-ol]
[1]; [3]
  hPRB agonist/antagonist character (in words): full antagonists

## CC1CCC2C3CC=C4C=CCC[C@]4(C)C3CC[C@]2(C)[C@H]1F (stereo partly drawn) [APR-08, 17aβ-Fluoro-17α-methyl-D-homo-pregn-3,5-diene]
[1]; [3]
  hPRB agonist/antagonist character (in words): partial antagonist
[1]; series 1 (no C3 substituent), HEK293T, APRn 1 μM, FIG. 1, listed as APR-8
  hPRB agonist/antagonist character (in words): full antagonists

## CC(O)[C@H]1CC[C@H]2[C@@H]3CC[C@H]4C[C@@H](O)CC[C@]4(C)[C@H]3CC[C@]12C (mixture of isomers) [APR-29, 5α-Pregnan-3β,20-diol]
[1]; [2]
  hPRB agonist/antagonist character (in words): able to activate hPRB, but their agonist efficacies are low

## CC(=O)[C@H]1CC[C@H]2[C@@H]3CC[C@H]4CCCC[C@]4(C)[C@H]3CC[C@]12C [APR-01, 5α-pregnan-20-one]
[1]; HEK293T, APRn 1 μM plus progesterone 1 nM, FIG. 1
  antagonist efficacy: 48%
[1]; HEK293T, APRn 1 μM, relative to 1 nM progesterone, FIG. 1
  efficacy to activate hPRB (agonist efficacy): 30%
[1]; [3]
  hPRB agonist/antagonist character (in words): partial hPRB agonist

Reference: US20130203718A1 (priority 2010, published 2013)
